Assay results as given in patent US7799781B2, “5,6,7,8-tetrahydropteridine derivatives as HSP90 inhibitors” (AstraZeneca AB, priority 2007, dated 2010).

Molecular target: T1, HSP90α (Homo sapiens, UniProt P07900)
T1 construct: 6H is tagged HSP90α protein (amino acids 2-732) expressed in E. coli; 6His; made in house; host or cells: E. coli
Assay: Test (a) In Vitro Binding Assay (fluorescence polarisation, binding to the ATP pocket of HSP90α)
Settings: FP probe displacement, geometric mean where tested more than once
Description: Test (a) In Vitro Binding Assay
Test (a) measures the ability of a compound to bind to the ATP pocket of HSP90α. 6H is tagged HSP90α protein (amino acids 2-732) expressed in E. coli was purified and stored at −80° C. in aliquots. Assay measurements were performed in assay buffer comprising 20 mM HEPES pH 7.4, 50 mM KCl, 20 mM NaHMoO4, 0.01% Nonidet P40, 2 mM DTT and 0.1 mg/ml BSA. Following resuspension in DMSO, the FP probe 3-[[5-(5-ethyl-2,4-dihydroxy-phenyl)-4-(4-methoxyphenyl)2H-pyrazole-3-carbonyl]amino]propyl-Cy3B-amide; 14-(2-{[3-({[3-(5-ethyl-2,4-dihydroxyphenyl)-4-(4-methoxyphenyl)-1H-pyrazol-5-yl]carbonyl}amino)propyl]amino}-2-oxoethyl)-16,16,18,18-tetramethyl-2-sulfo-6,7,7a,8a,9,10,16,18-octahydrobenzo[2″,3″]indolizino [8″,7″:5′,6′]pyrano[3′,2′:3,4]pyrido[1,2-a]indol-5-ium) was diluted to a final concentration of 5 nM in assay buffer. Test compounds were prepared by dilution in 100% DMSO to give the appropriate dose range and dispensed into a 384 well assay plate as a 6X concentrate. Upon addition of recombinant HSP90α to a final assay concentration of 1 μg/ml, FP probe was added and plates incubated at room temperature for 1 to 4 hours. Final DMSO concentration was 1% in a total assay volume of 18 μl. Fluorescence Polarisation measurements were made using a Tecan Ultra plate reader using an excitation wavelength of 530 nm and an emission wavelength of 590 nm. Millipolarisation (mP) values were estimated using Xfluor software.
The data in the above table was generated in an assay substantially as described above in relation to in-vitro Binding Assay (a). Some of the compounds shown in the table were tested more than once in the assay. For those compounds the IC50 value shown is the geometric mean of the measured IC50 values. Therefore, as will be understood, the IC50 values quoted above are not absolute and further measurements of the IC50 values may result in a different mean IC50 value.

Structure (SMILES) | IC50 [nM]
COc1c(C)cnc(CN2c3nc(N)ncc3N(C)C[C@H]2C)c1C [Example 6.3, (7R)-8-[(4-methoxy-3,5-dimethylpyridin-2-yl)methyl]-5,7-dimethyl-5,6,7,8-tetrahydropteridin-2-amine] | 15600
COc1c(C)cnc(CN2c3nc(N)ncc3N(CCCc3cccnc3)C(=O)[C@H]2C)c1C [Example 11.17, (7R)-2-amino-8-[(4-methoxy-3,5-dimethylpyridin-2-yl)methyl]-7-methyl-5-(3-pyridin-3-ylpropyl)-7,8-dihydropteridin-6(5H)-one] | 1480
COc1c(C)cnc(CN2CC(=O)N(CCc3ccccc3)c3c(Cl)nc(N)nc32)c1C [Example 11.24, 2-amino-4-chloro-8-[(4-methoxy-3,5-dimethylpyridin-2-yl)methyl]-5-(2-phenylethyl)-7,8-dihydropteridin-6(5H)-one] | 81.8
COc1c(C)cnc(CN2c3nc(N)ncc3NC(=O)[C@H]2CC(=O)NCCN(C)C)c1C [Example 14.2, 2-{(7R)-2-amino-8-[(4-methoxy-3,5-dimethylpyridin-2-yl)methyl]-6-oxo-5,6,7,8-tetrahydropteridin-7-yl}-N-[2-(dimethylamino)ethyl]acetamide] | 1620
CCCN1C(=O)[C@@H](C)N(Cc2ncc(C)c(OC)c2C)c2nc(N)ncc21 [Example 11.8, (7R)-2-amino-8-[(4-methoxy-3,5-dimethylpyridin-2-yl)methyl]-7-methyl-5-propyl-7,8-dihydropteridin-6(5H)-one] | 552
COc1c(C)cnc(CN2c3nc(N)ncc3N(CCN3CCNCC3)C(=O)[C@H]2C)c1C [Example 11.3, (7R)-2-amino-8-[(4-methoxy-3,5-dimethylpyridin-2-yl)methyl]-7-methyl-5-(2-piperazin-1-ylethyl)-7,8-dihydropteridin-6(5H)-one] | 7830
COc1c(C)cnc(CN2c3nc(N)ncc3N(CC3CC3)C(=O)[C@H]2C)c1C [Example 11.10, (7R)-2-amino-5-(cyclopropylmethyl)-8-[(4-methoxy-3,5-dimethylpyridin-2-yl)methyl]-7-methyl-7,8-dihydropteridin-6(5H)-one] | 803
COc1c(C)cnc(CN2c3nc(N)ncc3N(CCN3CCCC3)C(=O)[C@H]2C)c1C [Example 11.11, (7R)-2-amino-8-[(4-methoxy-3,5-dimethylpyridin-2-yl)methyl]-7-methyl-5-(2-pyrrolidin-1-ylethyl)-7,8-dihydropteridin-6(5H)-one] | 6090
CCC[C@@H]1C(=O)Nc2cnc(N)nc2N1Cc1ncc(C)c(OC)c1C [Example 7.4, (7R)-2-amino-8-[(4-methoxy-3,5-dimethyl-pyridin-2-yl)methyl]-7-propyl-7,8-dihydropteridin-6(5H)-one] | 1800
COc1c(C)cnc(CN2c3nc(N)ncc3NC(=O)[C@H]2CC(C)C)c1C [Example 7.1, (7R)-2-amino-8-[(4-methoxy-3,5-dimethyl-pyridin-2-yl)methyl]-7-(2-methylpropyl)-7,8-dihydropteridin-6(5H)-one] | 1940
COc1c(C)cnc(CN2c3nc(N)ncc3N(C)C(=O)[C@H]2C)c1C [Example 4.2, (7R)-2-amino-8-[(4-methoxy-3,5-dimethylpyridin-2-yl)methyl]-5,7-dimethyl-7,8-dihydropteridin-6(5H)-one] | 788
COc1c(C)cnc(CN2c3nc(N)ncc3NC(=O)[C@H]2Cc2ccccc2)c1C [Example 7.2, (7R)-2-amino-7-benzyl-8-[(4-methoxy-3,5-dimethyl-pyridin-2-yl)methyl]-7,8-dihydropteridin-6(5H)-one] | 526
COc1c(C)cnc(CN2CC(=O)N(CCC(C)C)c3cnc(N)nc32)c1C [Example 11.5, 2-amino-8-[(4-methoxy-3,5-dimethylpyridin-2-yl)methyl]-5-(3-methylbutyl)-7,8-dihydropteridin-6(5H)-one] | 3780
CCN1C(=O)[C@H](C)N(Cc2ncc(C)c(OC)c2C)c2nc(N)ncc21 [Example 4.1, (7S)-2-amino-5-ethyl-8-[(4-methoxy-3,5-dimethylpyridin-2-yl)methyl]-7-methyl-7,8-dihydropteridin-6(5H)-one] | 16700
COc1c(C)cnc(CN2c3nc(N)ncc3N(CCN3CCCC3=O)C(=O)[C@H]2C)c1C [Example 11.21, (7R)-2-amino-8-[(4-methoxy-3,5-dimethylpyridin-2-yl)methyl]-7-methyl-5-[2-(2-oxopyrrolidin-1-yl)ethyl]-7,8-dihydropteridin-6(5H)-one] | 4610
CCCN1C(=O)CN(Cc2ncc(C)c(OC)c2C)c2nc(N)nc(Cl)c21 [Example 11.23, 2-amino-4-chloro-8-[(4-methoxy-3,5-dimethylpyridin-2-yl)methyl]-5-propyl-7,8-dihydropteridin-6(5H)-one] | 49.6
COc1c(C)cnc(CN2c3nc(N)ncc3NC(=O)[C@H]2CC(=O)NCCCN(C)C)c1C [Example 14.1, 2-{(7R)-2-amino-8-[(4-methoxy-3,5-dimethylpyridin-2-yl)methyl]-6-oxo-5,6,7,8-tetrahydropteridin-7-yl}-N-[3-(dimethylamino)propyl]acetamide] | 1630
COc1c(C)cnc(CN2CC(=O)N(CCc3cccnc3)c3c(Cl)nc(N)nc32)c1C [Example 11.18, 2-amino-4-chloro-8-[(4-methoxy-3,5-dimethylpyridin-2-yl)methyl]-5-(2-pyridin-3-ylethyl)-7,8-dihydropteridin-6(5H)-one] | 166
COc1c(C)cnc(CN2c3nc(N)ncc3NC(=O)[C@@H]2C)c1C [Example 1, (7S)-2-amino-8-[(4-methoxy-3,5-dimethylpyridin-2-yl)methyl]-7-methyl-7,8-dihydropteridin-6(5H)-one] | 10000
COc1c(C)cnc(CN2c3nc(N)ncc3N(CC(F)F)C(=O)[C@H]2C)c1C [Example 11.4, (7R)-2-amino-5-(2,2-difluoroethyl)-8-[(4-methoxy-3,5-dimethylpyridin-2-yl)methyl]-7-methyl-7,8-dihydropteridin-6(5H)-one] | 191
COc1c(C)cnc(CN2CC(=O)Nc3c(C)nc(N)nc32)c1C [Example 15, 2-amino-8-[(4-methoxy-3,5-dimethyl-pyridin-2-yl)methyl]-4-methyl-5,7-dihydropteridin-6-one] | 808
COc1c(C)cnc(CN2CC(=O)Nc3c(Cl)nc(N)nc32)c1C [Example 8, 2-Amino-4-chloro-8-[(4-methoxy-3,5-dimethyl-pyridin-2-yl)methyl]-5,7-dihydropteridin-6-one] | 100
COc1c(C)cnc(CN2c3nc(N)ncc3N(CCN3CCOCC3)C(=O)[C@H]2C)c1C [Example 11.14, (7R)-2-amino-8-[(4-methoxy-3,5-dimethylpyridin-2-yl)methyl]-7-methyl-5-(2-morpholin-4-ylethyl)-7,8-dihydropteridin-6(5H)-one] | 2400
COCCCN1C(=O)[C@@H](C)N(Cc2ncc(C)c(OC)c2C)c2nc(N)ncc21 [Example 10, (7R)-2-Amino-8-[(4-methoxy-3,5-dimethylpyridin-2-yl)methyl]-5-(3-methoxypropyl)-7-methyl-7,8-dihydropteridin-6(5H)-one] | 1220
COc1c(C)cnc(CN2c3nc(N)ncc3N(CCC(C)C)C(=O)[C@H]2C)c1C [Example 11.7, (7R)-2-amino-8-[(4-methoxy-3,5-dimethylpyridin-2-yl)methyl]-7-methyl-5-(3-methylbutyl)-7,8-dihydropteridin-6(5H)-one] | 375
COc1c(C)cnc(CN2c3nc(N)ncc3NC(=O)[C@H]2CC(N)=O)c1C [Example 13, 2-{(7R)-2-amino-8-[(4-methoxy-3,5-dimethylpyridin-2-yl)methyl]-6-oxo-5,6,7,8-tetrahydropteridin-7-yl}acetamide] | 1750
COc1c(C)cnc(CN2CC(=O)Nc3cnc(N)nc32)c1C [Example 2.3, 2-amino-8-[(4-methoxy-3,5-dimethylpyridin-2-yl)methyl]-7,8-dihydropteridin-6(5H)-one] | 1160
COC(=O)C[C@@H]1C(=O)Nc2cnc(N)nc2N1Cc1ncc(C)c(OC)c1C [Example 7.3, Methyl {(7R)-2-amino-8-[(4-methoxy-3,5-dimethylpyridin-2-yl)methyl]-6-oxo-5,6,7,8-tetrahydropteridin-7-yl}acetate] | 325
COc1c(C)cnc(CN2CC(=O)N(Cc3ccccc3)c3c(Cl)nc(N)nc32)c1C [Example 11.22, 2-amino-5-benzyl-4-chloro-8-[(4-methoxy-3,5-dimethylpyridin-2-yl)methyl]-7,8-dihydropteridin-6(5H)-one] | 288
COc1c(C)cnc(CN2c3nc(N)ncc3N(C)C(=O)[C@@H]2C)c1C [Example 3, (7S)-2-amino-8-[(4-methoxy-3,5-dimethylpyridin-2-yl)methyl]-5,7-dimethyl-7,8-dihydropteridin-6(5H)-one] | 18400
